# Experimental data as given in ChEMBL document CHEMBL3865792, “Antioxidant and antitumor activity of trolox, trolox succinate, and α-tocopheryl succinate conjugates with nitroxides” (Eur J Med Chem, 2016).
# Experiments:
# [1] = Genotoxicity in Escherichia coli PQ37 expressing lacZ gene assessed as ratio of inducible beta-galactosidase activity to alkaline phosphatase activity at 1 mM after 2 hrs by SOS-chromotest relative to control; type: toxicity; settings: Escherichia coli PQ37 cells expressing lacZ gene, read-out: FC
# [2] = system: Salmonella typhimurium; test: Genotoxicity in Salmonella typhimurium TA102 harboring […] mutant assessed as frequency of reversion from histidine auxotrophy to prototrophy at 0.35 mM after 48 hrs by Ames test (reference value: 209 +/- 10 No _unit); type: toxicity, organism-based; settings: salmonella enterica subsp. enterica serovar typhimurium, 350 µM
# [3] = Genotoxicity in Escherichia coli PQ37 expressing lacZ gene assessed as ratio of inducible beta-galactosidase activity to alkaline phosphatase activity at 30 mM after 2 hrs by SOS-chromotest relative to control; type: toxicity; settings: Escherichia coli PQ37 cells expressing lacZ gene, read-out: FC
# [4] = system: Salmonella typhimurium; test: Genotoxicity in Salmonella typhimurium TA102 harboring […] mutant assessed as frequency of reversion from histidine auxotrophy to prototrophy at 30 mM after 48 hrs by Ames test (reference value: 209 +/- 10 No _unit); type: toxicity, organism-based; settings: salmonella enterica subsp. enterica serovar typhimurium, 30000 µM
# [5] = system: Salmonella enterica subsp. enterica serovar Typhimurium; test: Antioxidant activity in Salmonella typhimurium TA102 harboring […] mutant assessed as inhibition of t-BuO2H-dependant mutant formation at 0.3 uM preincubated with compound followed by t-BuO2H addition after 48 hrs by Ames test; type: functional
# [6] = system: Salmonella enterica subsp. enterica serovar Typhimurium; test: Antioxidant activity in Salmonella typhimurium TA102 harboring […] mutant assessed as inhibition of t-BuO2H-dependant mutant formation at 3 uM preincubated with compound followed by t-BuO2H addition after 48 hrs by Ames test; type: functional
# [7] = system: Salmonella enterica subsp. enterica serovar Typhimurium; test: Antioxidant activity in Salmonella typhimurium TA102 harboring […] mutant assessed as inhibition of t-BuO2H-dependant mutant formation at 30 uM preincubated with compound followed by t-BuO2H addition after 48 hrs by Ames test; type: functional
# [8] = Cytotoxicity against human MCF7 cells assessed as reduction in cell viability after 72 hrs by MTT assay; type: functional, cell-based; settings: MCF7, 72 h
# [9] = Cytotoxicity against human RPMI8226 cells assessed as reduction in cell viability after 72 hrs by MTT assay; type: functional, cell-based; settings: RPMI-8226, 72 h
# [10] = Cytotoxicity against human HepG2 cells assessed as reduction in cell viability after 72 hrs by MTT assay; type: functional, cell-based; settings: HepG2, 72 h
# [11] = Cytotoxicity against human CEM13 cells assessed as reduction in cell viability after 72 hrs by MTT assay; type: functional, cell-based; settings: CEM13, 72 h
# [12] = Cytotoxicity against human U937 cells assessed as reduction in cell viability after 72 hrs by MTT assay; type: functional, cell-based; settings: U-937, 72 h
# [13] = Cytotoxicity against human MT4 cells assessed as reduction in cell viability after 72 hrs by MTT assay; type: functional, cell-based; settings: MT4, 72 h
# [14] = Cytotoxicity against mouse LMTK cells assessed as reduction in cell viability after 72 hrs by MTT assay; type: toxicity
# [15] = Cytotoxicity against hamster AG17-1 cells assessed as reduction in cell viability after 72 hrs by MTT assay; type: toxicity, cell-based, Cricetulus griseus; settings: Chinese hamster
# [16] = Cytotoxicity against human MCF7 cells assessed as reduction in cell viability at 300 uM after 72 hrs by MTT assay; type: functional; settings: MCF7, 72 h
# [17] = Cytotoxicity against human RPMI8226 cells assessed as reduction in cell viability at 300 uM after 72 hrs by MTT assay; type: functional; settings: RPMI-8226, 72 h
# [18] = Cytotoxicity against human HepG2 cells assessed as reduction in cell viability at 300 uM after 72 hrs by MTT assay; type: functional; settings: HepG2, 72 h
# [19] = Cytotoxicity against human CEM13 cells assessed as reduction in cell viability at 300 uM after 72 hrs by MTT assay; type: functional; settings: CEM13, 72 h
# [20] = Cytotoxicity against mouse LMTK cells assessed as reduction in cell viability at 300 uM after 72 hrs by MTT assay; type: toxicity; settings: read-out: INH
# [21] = Cytotoxicity against hamster AG17-1 cells assessed as reduction in cell viability at 300 uM after 72 hrs by MTT assay; type: toxicity, cell-based, Cricetulus griseus; settings: Chinese hamster, read-out: INH
# [22] = Ratio of IC50 for human MCF7 cells to concentration causing antioxidant activity in Salmonella typhimurium TA102 harboring […] mutant; type: functional
# [23] = Ratio of IC50 for human RPMI8226 cells to concentration causing antioxidant activity in Salmonella typhimurium TA102 harboring […] mutant; type: functional, RPMI-8226
# [24] = Ratio of IC50 for human HEPG2 cells to concentration causing antioxidant activity in Salmonella typhimurium TA102 harboring […] mutant; type: functional
# [25] = Ratio of IC50 for human CEM13 cells to concentration causing antioxidant activity in Salmonella typhimurium TA102 harboring […] mutant; type: functional
# [26] = Ratio of IC50 for human MT4 cells to concentration causing antioxidant activity in Salmonella typhimurium TA102 harboring […] mutant; type: functional
# [27] = Ratio of IC50 for human U937 cells to concentration causing antioxidant activity in Salmonella typhimurium TA102 harboring […] mutant; type: functional, U-937
# [28] = Genotoxicity in Escherichia coli PQ37 expressing lacZ gene assessed as ratio of inducible beta-galactosidase activity to alkaline phosphatase activity at 3 mM after 2 hrs by SOS-chromotest relative to control; type: toxicity; settings: Escherichia coli PQ37 cells expressing lacZ gene, read-out: FC
# [29] = Cytotoxicity against human MT4 cells assessed as reduction in cell viability at 300 uM after 72 hrs by MTT assay; type: functional; settings: MT4, 72 h
SMILES,Activity [4],inhibition [5],inhibition [6],inhibition [7],IC50 [8],IC50 [9],IC50 [10],IC50 [11],IC50 [12],IC50 [13],IC50 at 72 h [14],IC50 at 72 h [15],inhibition at 300 µM [16],inhibition at 300 µM [17],inhibition at 300 µM [18],"cytotoxicity at 72 h, 300 µM [20]","cytotoxicity at 72 h, 300 µM [21]",Ratio [22],Ratio [23],Ratio [24],also measured
CC(C)(C)OO [TERT-BUTYL HYDROPEROXIDE],,,,,,,,,,,,,,,,,,,,,"fold induction at 2 h, 1000 µM [1]: 11.6; Activity [2]: 482"
Cc1c(C)c2c(c(C)c1OC(=O)CCC(=O)O)CCC(C)(C(=O)NC1CC(C)(C)N([O])C(C)(C)C1)O2 (stereo not given),216,10%,18%,19%,> 300 µM,> 300 µM,> 300 µM,> 300 µM,123 µM,165 µM,> 300 µM,> 300 µM,15%,14%,44%,0%,36%,100 - 1000,100 - 1000,100 - 1000,"fold induction at 2 h, 30000 µM [3]: 1.1; inhibition at 300 µM [19]: 30%; Ratio [25]: 100 - 1000; Ratio [26]: 100 - 1000; Ratio [27]: 100 - 1000"
Cc1c(C)c2c(c(C)c1O)CC[C@@](C)(CCC[C@H](C)CCC[C@H](C)CCCC(C)C)O2 [ALPHA-TOCOPHEROL],217,6%,13%,15%,> 300 µM,> 300 µM,> 300 µM,> 300 µM,100 µM,165 µM,> 300 µM,> 300 µM,37%,0%,0%,28%,12%,,,,"fold induction at 2 h, 3000 µM [28]: 1.28; inhibition at 300 µM [19]: 35%"
Cc1c(C)c2c(c(C)c1OC(=O)CCC(=O)O)CCC(C)(C(=O)NC1CC(C)(C)N([O])C1(C)C)O2 (stereo not given),221,6%,11%,33%,> 300 µM,> 300 µM,> 300 µM,205 µM,163 µM,> 300 µM,> 300 µM,> 300 µM,25%,28%,25%,0%,27%,100 - 1000,100 - 1000,100 - 1000,"fold induction at 2 h, 30000 µM [3]: 1.2; inhibition at 300 µM [29]: 45%; Ratio [25]: 100 - 1000; Ratio [26]: 100 - 1000; Ratio [27]: 100 - 1000"
Cc1c(C)c2c(c(C)c1O)CCC(C)(C(=O)O)O2 (stereo not given) [TROLOX],230,8.8%,14.5%,4.7%,> 300 µM,> 300 µM,> 300 µM,> 300 µM,300 µM,200 µM,> 300 µM,> 300 µM,5%,0%,14%,0%,0%,,,,"fold induction at 2 h, 3000 µM [28]: 1; inhibition at 300 µM [19]: 37%"
CC1(C)CC(CNC(=O)CCC(=O)O)C(C)(C)N1[O] (stereo not given),219,15%,21%,11%,> 300 µM,> 300 µM,> 300 µM,> 400 µM,282 µM,> 400 µM,> 300 µM,> 300 µM,24%,13%,0%,0%,0%,100 - 1000,100 - 1000,100 - 1000,"fold induction at 2 h, 3000 µM [28]: 1.3; Ratio [25]: 100 - 1000; Ratio [26]: 100 - 1000; Ratio [27]: 100 - 1000"
Cc1c(C)c2c(c(C)c1OC(=O)CCC(=O)O)CCC(C)(C(=O)O)O2 (stereo not given),216,35%,35%,35%,> 300 µM,63 µM,242 µM,191 µM,120 µM,285 µM,> 300 µM,> 300 µM,15%,,,7%,27%,,,,"fold induction at 2 h, 30000 µM [3]: 1.1; inhibition at 300 µM [29]: 34%"
CC1(C)CC(NC(=O)CCC(=O)O)C(C)(C)N1[O] (stereo not given),199,38%,48%,52%,> 300 µM,> 300 µM,> 300 µM,> 400 µM,241 µM,> 400 µM,> 300 µM,> 300 µM,17%,44%,0%,0%,19%,100 - 1000,100 - 1000,100 - 1000,"fold induction at 2 h, 3000 µM [28]: 1.2; Ratio [25]: 100 - 1000; Ratio [26]: 100 - 1000; Ratio [27]: 100 - 1000"
Cc1c(C)c2c(c(C)c1OC(=O)CCC(=O)O)CCC(C)(C(=O)NCC1CC(C)(C)N([O])C1(C)C)O2 (stereo not given),205,31%,22%,18%,> 300 µM,> 300 µM,> 300 µM,> 300 µM,24 µM,> 300 µM,> 300 µM,> 300 µM,24%,22%,18%,0%,30%,100 - 1000,100 - 1000,100 - 1000,"fold induction at 2 h, 30000 µM [3]: 1.3; inhibition at 300 µM [19]: 31%; inhibition at 300 µM [29]: 46%; Ratio [25]: 100 - 1000; Ratio [26]: 100 - 1000; Ratio [27]: 100 - 1000"
CC1(C)CC(NC(=O)CCC(=O)O)CC(C)(C)N1[O],211,36%,49%,41%,> 300 µM,> 300 µM,> 300 µM,> 400 µM,170 µM,> 400 µM,> 300 µM,> 300 µM,20%,12%,0%,18%,0%,100 - 1000,100 - 1000,100 - 1000,"fold induction at 2 h, 3000 µM [28]: 1.3; Ratio [25]: 100 - 1000; Ratio [26]: 100 - 1000; Ratio [27]: 100 - 1000"
